Assay results from PubChem BioAssay AID330 (DTP/NCI, 2004).
Values joined by “and” are separate entries in the source; they are usually repeats but may differ in a detail not shown here. Equal values may be shown once. Inconclusive results and toxic doses are left out. The calls were made as follows: active = survival T/C of 150% or more; inactive = T/C below 125% in these data.

Tested on: P388 leukemia ip, CD2F1 mice, survival T/C
Assay: NCI In Vivo Anticancer Drug Screen. Data for tumor model P388 Leukemia (intraperitoneal) in CD2F1 (CDF1) mice
Conditions: endpoint: median survival time, higher = longer survival
Procedure, shortened: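 Mice carrying the transplanted tumor received test compound or vehicle. Survival was recorded in each group, and the value is the treated-group measurement divided by that of the vehicle-treated control group.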

[1] = dose: 100.0 mg/kg/injection, schedule: Q01DX009 (ip), vehicle: saline with Tween-80
[2] = dose: 200.0 mg/kg/injection, schedule: Q01DX009 (ip), vehicle: saline with Tween-80
[3] = dose: 60.0 mg/kg/injection, schedule: Q01DX005 (ip), vehicle: saline with Tween-80
[4] = dose: 120.0 mg/kg/injection, schedule: Q01DX005 (ip), vehicle: saline with Tween-80
[5] = dose: 240.0 mg/kg/injection, schedule: Q01DX005 (ip), vehicle: saline with Tween-80
[6] = dose: 50.0 mg/kg/injection, schedule: Q01DX009 (ip), vehicle: saline
[7] = dose: 25.0 mg/kg/injection, schedule: Q01DX009 (ip), vehicle: other
[8] = dose: 100.0 mg/kg/injection, schedule: Q01DX009 (ip), vehicle: other
[9] = dose: 50.0 mg/kg/injection, schedule: Q01DX009 (ip), vehicle: saline with Tween-80

Measured: T/C

OCC1OC(n2cnc3c(=S)nc[nH]c32)C(O)C1O (centres undefined)
inactive: dose: 25.0 mg/kg/injection, schedule: Q01DX009 (ip), vehicle: saline sonified 95 % of control | dose: 50.0 mg/kg/injection, schedule: Q01DX009 (ip), vehicle: saline sonified 100 % of control | dose: 100.0 mg/kg/injection, schedule: Q01DX009 (ip), vehicle: saline sonified 100 % of control | [1] 100 % of control | [2] 100 % of control | dose: 400.0 mg/kg/injection, schedule: Q01DX009 (ip), vehicle: saline with Tween-80 95 % of control | dose: 800.0 mg/kg/injection, schedule: Q01DX009 (ip), vehicle: saline with Tween-80 109 % of control

CC(C)C1NC(=O)C2=CN(Cc3ccccc3)C=CC2NC(=O)C(C(C)C)NC(=O)C2=CN(Cc3ccccc3)C=CC2NC1=O (centres undefined)
inactive: [3] 94 % of control | [4] 100 % of control | [5] 97 % of control

O=NNc1ccc(Sc2ccc(NN=O)cn2)nc1
inactive: dose: 3.12 mg/kg/injection, schedule: Q01DX009 (ip), vehicle: saline 100 % of control | dose: 6.25 mg/kg/injection, schedule: Q01DX009 (ip), vehicle: saline 107 % of control | dose: 12.5 mg/kg/injection, schedule: Q01DX009 (ip), vehicle: saline 114 % of control | [6] 122 % of control

O=[N+]([O-])c1cc2c(cc1C1OCCO1)OCO2
inactive: [7] 102 % of control | dose: 50.0 mg/kg/injection, schedule: Q01DX009 (ip), vehicle: other 100 % of control | [8] 100 % of control | dose: 200.0 mg/kg/injection, schedule: Q01DX009 (ip), vehicle: other 98 % of control | dose: 400.0 mg/kg/injection, schedule: Q01DX009 (ip), vehicle: other 98 % of control

CC/C(=N\NS(=O)(=O)c1ccc(C)cc1)c1cccc(C#N)c1
inactive: [6] 106 % of control | dose: 100.0 mg/kg/injection, schedule: Q01DX009 (ip), vehicle: saline 96 % of control | dose: 200.0 mg/kg/injection, schedule: Q01DX009 (ip), vehicle: saline 99 % of control

COc1c2c(cc3c1C(O)=CC(=O)C3=O)OCO2
inactive: dose: 50.0 mg/kg/injection, schedule: Q01DX005 (ip), vehicle: Klucel (hydroxypropylcellulose) (HPC) 104 % of control | dose: 100.0 mg/kg/injection, schedule: Q01DX005 (ip), vehicle: Klucel (hydroxypropylcellulose) (HPC) 100 % of control | dose: 200.0 mg/kg/injection, schedule: Q01DX005 (ip), vehicle: Klucel (hydroxypropylcellulose) (HPC) 107 % of control

O=C1OC(c2ccc(Cl)cc2)Sc2ccccc21 (centres undefined)
inactive: dose: 25.0 mg/kg/injection, schedule: Q04DX003 (ip), vehicle: saline with Tween-80 102 % of control | dose: 50.0 mg/kg/injection, schedule: Q04DX003 (ip), vehicle: saline with Tween-80 93 % of control | dose: 100.0 mg/kg/injection, schedule: Q04DX003 (ip), vehicle: saline with Tween-80 102 % of control | dose: 200.0 mg/kg/injection, schedule: Q04DX003 (ip), vehicle: saline with Tween-80 100 % of control

COc1nc(NC2OC(COC(C)=O)C(OC(C)=O)C(OC(C)=O)C2OC(C)=O)c(N=CC=Nc2c(NC3OC(COC(C)=O)C(OC(C)=O)C(OC(C)=O)C3OC(C)=O)nc(OC)n(C)c2=O)c(=O)n1C (centres undefined)
inactive: [3] 86 % of control | [4] 92 % of control | [5] 94 % of control

O=C(NNC(=O)c1cccc(C(=O)NNC(=O)c2ccc(Cl)c(Cl)c2)n1)c1ccc(Cl)c(Cl)c1
inactive: dose: 12.5 mg/kg/injection, schedule: Q01DX009 (ip), vehicle: Klucel (hydroxypropylcellulose) (HPC) 106 % of control and 98 % of control | dose: 25.0 mg/kg/injection, schedule: Q01DX009 (ip), vehicle: Klucel (hydroxypropylcellulose) (HPC) 108 % of control and 95 % of control | dose: 50.0 mg/kg/injection, schedule: Q01DX009 (ip), vehicle: Klucel (hydroxypropylcellulose) (HPC) 105 % of control and 122 % of control | dose: 100.0 mg/kg/injection, schedule: Q01DX009 (ip), vehicle: Klucel (hydroxypropylcellulose) (HPC) 119 % of control

C=C1CCN(c2cccc(Cl)c2)C1=O
inactive: dose: 4.0 mg/kg/injection, schedule: Q01DX009 (ip), vehicle: saline + alcohol 96 % of control | dose: 8.0 mg/kg/injection, schedule: Q01DX009 (ip), vehicle: saline + alcohol 101 % of control | dose: 16.0 mg/kg/injection, schedule: Q01DX009 (ip), vehicle: saline + alcohol 100 % of control | dose: 32.0 mg/kg/injection, schedule: Q01DX009 (ip), vehicle: saline + alcohol 105 % of control | dose: 64.0 mg/kg/injection, schedule: Q01DX009 (ip), vehicle: saline + alcohol 100 % of control

O=C(O)c1ccccc1Nc1c(C(=O)O)cnc2cc3c(cc12)OCO3
inactive: dose: 60.0 mg/kg/injection, schedule: Q01DX005 (ip), vehicle: Klucel (hydroxypropylcellulose) (HPC) 101 % of control | dose: 120.0 mg/kg/injection, schedule: Q01DX005 (ip), vehicle: Klucel (hydroxypropylcellulose) (HPC) 99 % of control | dose: 240.0 mg/kg/injection, schedule: Q01DX005 (ip), vehicle: Klucel (hydroxypropylcellulose) (HPC) 88 % of control

NC(=S)C1OC(COC(=O)c2ccccc2)C(OC(=O)c2ccccc2)C1OC(=O)c1ccccc1 (centres undefined)
inactive: [9] 96 % of control | [1] 94 % of control | [2] 102 % of control

O=C(c1ccc(-c2ccccc2)cc1)C1C(c2ccccc2)N1C1CCCCC1 (centres undefined)
inactive: [7] 88 % of control | [8] 91 % of control

O=S(=O)(C#Cc1ccccc1)C(F)(F)C(F)(F)C(F)(F)C(F)(F)F
inactive: dose: 100.0 mg/kg/injection, schedule: Q01DX001 (ip), vehicle: saline 116 % of control | dose: 200.0 mg/kg/injection, schedule: Q01DX001 (ip), vehicle: saline 115 % of control | dose: 400.0 mg/kg/injection, schedule: Q01DX001 (ip), vehicle: saline 102 % of control

O=NN(C(=O)NC1CCCC1)C1CCCC1
inactive: dose: 25.0 mg/kg/injection, schedule: Q01DX001 (ip), vehicle: distilled water + Tween-80 106 % of control | dose: 50.0 mg/kg/injection, schedule: Q01DX001 (ip), vehicle: distilled water + Tween-80 105 % of control | dose: 100.0 mg/kg/injection, schedule: Q01DX001 (ip), vehicle: distilled water + Tween-80 108 % of control | dose: 200.0 mg/kg/injection, schedule: Q01DX001 (ip), vehicle: distilled water + Tween-80 110 % of control | dose: 400.0 mg/kg/injection, schedule: Q01DX001 (ip), vehicle: distilled water + Tween-80 110 % of control

CSc1nc2ncnc(N)c2[nH]1
inactive: dose: 50.0 mg/kg/injection, schedule: Q01DX005 (ip), vehicle: saline with Tween-80 93 % of control | dose: 100.0 mg/kg/injection, schedule: Q01DX005 (ip), vehicle: saline with Tween-80 96 % of control | dose: 200.0 mg/kg/injection, schedule: Q01DX005 (ip), vehicle: saline with Tween-80 108 % of control

COc1ccc2c(c1O)-c1cc(O)cc3c1C(C2)NCC3 (centres undefined)
inactive: dose: 0.32 mg/kg/injection, schedule: Q04DX003 (ip), vehicle: DMSO 98 % of control | dose: 0.63 mg/kg/injection, schedule: Q04DX003 (ip), vehicle: DMSO 95 % of control | dose: 1.25 mg/kg/injection, schedule: Q04DX003 (ip), vehicle: DMSO 99 % of control | dose: 2.5 mg/kg/injection, schedule: Q04DX003 (ip), vehicle: DMSO 98 % of control | dose: 5.0 mg/kg/injection, schedule: Q04DX003 (ip), vehicle: DMSO 100 % of control

CN(C)c1ccc(N=Nc2ccc3ccc4cccc5ccc2c3c45)cc1
inactive: [9] 93 % of control | [1] 89 % of control | [2] 102 % of control

CCCC1C=C(c2ccccc2)N=C(c2ccccc2)S1 (centres undefined)
inactive: [9] 98 % of control | [1] 101 % of control | [2] 90 % of control

C[Si](C)(C)/N=C/O[Si](C)(C)C
inactive: dose: 60.0 mg/kg/injection, schedule: Q01DX005 (ip), vehicle: saline 100 % of control | dose: 120.0 mg/kg/injection, schedule: Q01DX005 (ip), vehicle: saline 101 % of control | dose: 240.0 mg/kg/injection, schedule: Q01DX005 (ip), vehicle: saline 108 % of control
